We go through 1 compound from patent publication US20230390315A1, “COMPOSITIONS AND METHODS FOR TREATING ISCHEMIC CONDITIONS” (The Regents of the University of California, priority 2020, published 2023).

In one test the test system is VEGFR2. Description: VEGF/VEGFR2 expression, cell surface amount and VEGFR2 activation in BCECs. Type of test: cell-based, bovine. The protocol: Cells were allowed to reach 80% confluency in 12-well plates. […] At various time points, plates were taken out of the incubator and kept on ice. Cell monolayers were first washed once with ice-cold PBS before lysis with 250 μl of Pierce RIPA buffer (ThermoFisher Scientific, Rockford, IL) or use 50 mM Tris-HCl (pH 7.6), 150 mM NaCl, 10% Glycerol, 1% NP-40 containing protease/Phosphatase inhibitor cocktail (100×) (Cell signaling, #5872). Lysates were collected and mixed with 4×Bolt LDS Sample Buffer (Novex, Carlsbad, CA) in the presence of Halt protease inhibitors and phosphatase inhibitor cocktail (ThermoFisher scientific, #NP0007). The samples were subjected to SDS-PAGE (Bolt 4-12% Bis-Tris Plus, Invitrogen) using Bolt MES SDS running buffer or NuPAGE 3-8% Tris-Acetate gel using Tris-Acetate SDS running buffer (Novex). HUVECs (passage 6-8) were plated in EBM-2 basal medium (Lonza) with 0.2% FBS. […] Equal amounts of protein lysates were analyzed by SDS-PAGE and blotted with the indicated antibodies. Proteins were transferred using Tris-Glycine buffer with 20% Methanol (Proteonomics grade) (Apex BioResearch Products). Membranes were first incubated with 5% milk in TBST, pH 7.6 (TEKnova, Hollister, CA), followed by blotting with primary and secondary antibodies. ECL anti-rabbit IgG, horseradish peroxidase linked whole antibody from donkey or sheep anti-mouse were obtained from GE Healthcare (UK limited). SuperSignal West Dura Extended Duration substrate was from ThermoFisher Scientific. In some cases, the same PVDF membranes were stripped by 8-min incubation in the Restore Plus Western Blot Stripping Buffer (ThermoFisher Scientific) to show total specific protein expression, followed by second stripping for β-actin expression. BCECs were plated in 10 cm cell culture dishes 3 days prior to the cell surface protein isolation. Cells were washed three times with Dulbecco's PBS with CaCl2 and MgCl2, followed by a 30 min incubation with EZ-Link Sulfo-NHS-SS-Biotin (Pierce, Rockford, IL, USA; 0.5 mg/ml in Dulbecco) on ice. […] For cell lysis 500 […]1 of lysis buffer (2% NP-40, 1% Triton X-100, 10% glycerol, 100 uM oxidized glutathione, EDTA free protease inhibitor tablet (Roche, Mannheim, Germany) in PBS was added to the cells. Lysed cell extracts were scraped off the plates and transferred to an Eppendorf tube followed by incubation on ice on a shaker for 30 mins. The cell extracts were incubated with 30 U of DNase (22° C. 50 mins, Roche, Mannheim, Germany) and centrifuged for 20 mins (20,800×g, at 4° C.) to pellet the insoluble material. The protein concentration of the supernatants was determined. Equal amounts of protein ( 2 mg) from each extract were used for cell surface protein isolation. […]

For a further test, the system named is Calu6. Description: Calu6 proliferation assay. Type of test: cell-based, human. The method, then:
Proliferation assays with fibroblasts were done in low-glucose DMEM containing 1% FBS, with or without 10 ng/ml bFGF, or 100 ng/ml human EGF and the assay was ended at day 3. ARPE-19 cells were gently lifted with 0.025% trypsin and plated in RtEGM media (Clonetics) containing 2% FBS, L-glutamine, human bFGF and GA-1000. Once cells were attached to plates, serum-free RtEGM media was used to maintain the cultures. For proliferation assays, 1500 human RPE cells were plated into 96-well plates in low-glucose DMEM containing 1% FBS. A673, U87MG, Calu6 and AML12 cells were grown until confluent and were then harvested and re-suspended in appropriate assay media. For proliferation assays, cells were plated at the density of 1000-2000 cells/well in low-glucose DMEM containing 5% FBS or otherwise stated. Bovine pituitary cells (pituitary folliculostellate cells) were isolated as previously described. For proliferation assays with human epidermal keratinocytes, human DMVECs and human dermal fibroblast cells, 1000 cells/well were plated in low-glucose DMEM containing 1% FBS with or without various growth factors. The assay was ended at day 3 for bovine pituitary cells and at day 4 for all the other cell types. […] Four days later, tumor cell growth was measured by the MTS assay (Promega, Madison, WI), a colorimetric assay that measures metabolic activity of viable cells. […]

On to `N[C@H](C=O)[C@@H](O)[C@H](O)[C@H](O)CO` [ManN, 2-Amino-2-deoxy-D-mannose], for which, in the test on VEGFR2, the “amount of VEGFR2 on cell surface (biotinylation)” value is given as “no changes in the amount of VEGFR2 on cell surface”. Further, the “transcription of VEGF, VEGFR2, GLUT1 & 4 and total VEGFR2 protein expression” value in the test with VEGFR2 (4 hours (gene) or 24 hours (protein)) is “neither transcription of VEGF, VEGFR2 and GLUT1 & 4 nor total VEGFR2 protein expression was significantly changed”. In addition, in the test with VEGFR2 (ManN pre-treated cells), the “VEGFR2 phosphorylation in response to VEGF” value is on record as “decreased”. Further, the “ligand-independent VEGFR2 activation” value in the test on VEGFR2 (after ManN addition) was “No ligand-independent VEGFR2 activation occurred”. In addition, in the test on Calu6, the “growth of Calu6” value is listed as “did not promote growth”.
